Experimental data taken from US20120251551A1, “Substituted (Heteroarylmethyl)thiohydantoins” (BAYER PHARMA AKTIENGESELLSCHAFT, priority 2009, published 2012).
Changes are numbered by the printed parent chain. Like-named read-outs stand apart in the source and are kept apart here.

Tests used:
[1] = biological target: T1, wild-type human androgen receptor (Homo sapiens, UniProt P10275); experiment: Cell-based transactivation assay for wild-type human androgen receptor (PC-3 cells, MMTV-luciferase reporter)
T1 construct: expressed in transfected cells
T1 sequence (P10275 1-920): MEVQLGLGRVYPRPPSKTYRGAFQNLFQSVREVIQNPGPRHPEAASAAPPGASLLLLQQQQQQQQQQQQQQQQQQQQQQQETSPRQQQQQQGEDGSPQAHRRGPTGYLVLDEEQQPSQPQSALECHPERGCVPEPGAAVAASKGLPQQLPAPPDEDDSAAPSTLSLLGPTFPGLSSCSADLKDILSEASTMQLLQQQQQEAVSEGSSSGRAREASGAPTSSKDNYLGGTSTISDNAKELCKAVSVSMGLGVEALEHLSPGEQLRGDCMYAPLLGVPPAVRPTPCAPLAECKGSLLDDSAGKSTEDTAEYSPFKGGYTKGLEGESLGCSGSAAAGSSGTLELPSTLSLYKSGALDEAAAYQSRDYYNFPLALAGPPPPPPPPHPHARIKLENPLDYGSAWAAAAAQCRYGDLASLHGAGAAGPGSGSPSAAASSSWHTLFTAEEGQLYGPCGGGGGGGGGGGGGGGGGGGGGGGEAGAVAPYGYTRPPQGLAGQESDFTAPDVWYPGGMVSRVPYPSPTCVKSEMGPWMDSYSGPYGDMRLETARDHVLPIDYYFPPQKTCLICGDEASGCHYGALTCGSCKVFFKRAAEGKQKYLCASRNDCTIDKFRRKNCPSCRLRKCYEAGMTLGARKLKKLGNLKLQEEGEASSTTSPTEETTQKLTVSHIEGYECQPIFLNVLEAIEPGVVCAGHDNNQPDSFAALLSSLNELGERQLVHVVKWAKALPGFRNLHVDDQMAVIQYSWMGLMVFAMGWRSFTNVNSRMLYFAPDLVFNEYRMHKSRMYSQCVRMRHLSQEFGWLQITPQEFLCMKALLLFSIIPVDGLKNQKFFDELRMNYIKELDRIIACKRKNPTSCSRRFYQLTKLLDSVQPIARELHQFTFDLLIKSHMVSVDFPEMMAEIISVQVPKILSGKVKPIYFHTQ

[2] = biological target: T2, human androgen receptor E709Y mutant (Homo sapiens, UniProt P10275, E710Y); experiment: Cell-based transactivation assay for human androgen receptor mutant E709Y
T2 construct: expressed in transfected cells; host or cells: PC-3 cells, transient transfection with a pSG5-derived plasmid
T2 sequence (P10275 1-920 E710Y): T1 sequence (P10275 1-920) with E710Y
Procedure: Cell-Based Transactivation Assay for Human Androgen Receptor Mutant E709Y
PC-3 cells (Kaighn et al., Invest. Urol. 17:16-23, 1979) were grown in 5% charcoal-stripped medium and seeded at a concentration of 10000 cells per well in a 96-well plate. They were transiently transfected with a pSG5-derived plasmid (#216201 from Stratagene, La Jolla, Calif., USA) coding for the human androgen receptor E709Y mutant (Georget et al., Molecular Endocrinology, 20(4): 724-734, 2006) and an MMTV-Luciferase reporter plasmid based on pGL4.14 14 (#E6691, Promega Corporation, Madison, Wis., USA). The compound to be tested was added at a concentration range varying from 1×10^−9 to 1×10^−6 M together with 1×10^−10 R1881. After 24 h incubation at 37° C. in a 5% CO2 atmosphere, 100 μl of Steady Glo Lysis and Detection reagent (Steady Glo Luciferase assay system E2550 from Promega Corporation. Madison, Wis., USA) were added. Antagonistic activity was determined by measuring Luciferase activity in a Victor 3 Luminometer (PerkinElmer, Waltham, Mass., USA) using the Steady Glo Luciferase Assay (E2550, Promega). IC50 values were calculated for anti-androgenic activity.

[3] = tested on: VCaP cells; experiment: Proliferation assay with VCaP cells; assay type: cell-based; conditions: Homo sapiens, 168 h, R1881 (1×10^−10) stimulated growth
Method in brief: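 Cells in DMEM with 10% charcoal-stripped serum treated one day after seeding with R1881 (1×10^−10) plus compound. Cell number read by Alamar Blue fluorescence (ex 530/em 590 nm) at day 0 and day 7; day-7 R1881-only signal defines stimulated growth, day-7 signal without R1881 defines basal level.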

[4] = day 7, read-out: Antiproliferative activity VCaP IC50
[5] = day 7, read-out: inhibition IC50 (VCaP)

| Compound | EC50 [1] | IC50 [2] | IC50 [3, 4] | IC50 [3, 5] |
| --- | --- | --- | --- | --- |
| CN1C(=S)N(c2ccc(C#N)c(C(F)(F)F)c2)C(=O)C1(C)C [2-(Trifluoromethyl)-4-(3,4,4-trimethyl-5-oxo-2-thioxoimidazolidin-1-yl)benzonitrile, reference compound] | 7.97 nM | 117 nM | > 1000 nM |  |
| CC1(C)C(=O)N(c2ccc(C#N)c(C(F)(F)F)c2)C(=S)N1CCCCO [4-[3-(4-Hydroxybutyl)-4,4-dimethyl-5-oxo-2-thioxoimidazolidin-1-yl]-2-(trifluoromethyl)benzonitrile, reference compound] | 8.13 nM | > 1000 nM | > 1000 nM |  |
| CC1(C)C(=O)N(c2ccc(C#N)c(C(F)(F)F)c2)C(=S)N1Cc1ccc(F)cc1 [Comparative data^4] | 1.79 nM | > 1000 nM | > 1000 nM |  |
| CC1(C)C(=O)N(c2ccc(C#N)c(C(F)(F)F)c2)C(=S)N1Cc1ccccc1 [Comparative data^4] | 46.4 nM | 587 nM | > 1000 nM |  |
| CC1(C)C(=O)N(c2ccc(C#N)c(C(F)(F)F)c2)C(=S)N1Cc1ccc(-n2ccnc2)nc1 [Example 1, 4-(3-{[6-(1H-Imidazol-1-yl)pyridin-3-yl]methyl}-4,4-dimethyl-5-oxo-2-thioxoimidazolidin-1-yl)-2-(trifluoromethyl)benzonitrile] | > 10000 nM | 7.21 nM | 291 nM |  |
| CC1(C)C(=O)N(c2ccc(C#N)c(C(F)(F)F)c2)C(=S)N1Cc1ccc(C(F)(F)F)nc1 [Example 2, 4-(4,4-Dimethyl-5-oxo-2-thioxo-3-{[6-(trifluoromethyl)pyridin-3-yl]methyl}imidazolidin-1-yl)-2-(trifluoromethyl)benzonitrile] | 5430 nM | 14.2 nM | 247 nM |  |
| CC1(C)C(=O)N(c2ccc(C#N)c(C(F)(F)F)c2)C(=S)N1Cc1ccc(N2CCOCC2)nc1 [Example 4, 4-(4,4-Dimethyl-3-{[6-(morpholin-4-yl)pyridin-3-yl]methyl}-5-oxo-2-thioxoimidazolidin-1-yl)-2-(trifluoromethyl)benzonitrile] | > 10000 nM | 77.2 nM | 124 nM | 124 nM |
| CC1(C)C(=O)N(c2ccc(C#N)c(C(F)(F)F)c2)C(=S)N1Cc1ccc(N2CCS(=N)(=O)CC2)nc1 [Example 9, 4-(3-{[6-(1-Imino-1-oxido-1λ^6-thiomorpholin-4-yl)pyridin-3-yl]methyl}-4,4-dimethyl-5-oxo-2-thioxoimidazolidin-1-yl)-2-(trifluoromethyl)benzonitrile] | > 10000 nM | 5.65 nM |  |  |
| CC(C)(O)COc1ccc(CN2C(=S)N(c3ccc(C#N)c(C(F)(F)F)c3)C(=O)C2(C)C)cn1 [Example 10, 4-(3-{[6-(2-Hydroxy-2-methylpropoxy)pyridin-3-yl]methyl}-4,4-dimethyl-5-oxo-2-thioxoimidazolidin-1-yl)-2-(trifluoromethyl)benzonitrile] | > 10000 nM | 26.3 nM | 229 nM | 229 nM |
| Cc1nc(C(F)(F)F)ccc1CN1C(=S)N(c2ccc(C#N)c(C(F)(F)F)c2)C(=O)C1(C)C [Example 13, 4-(4,4-Dimethyl-3-{[2-methyl-6-(trifluoromethyl)pyridin-3-yl]methyl}-5-oxo-2-thioxoimidazolidin-1-yl)-2-(trifluoromethyl)benzonitrile] | > 10000 nM | 24.7 nM | 300 nM |  |
